From publication PMC7162861, “Synthesis, cytotoxicity, pharmacokinetic profile, binding with DNA and BSA of new imidazo[1,2-a]pyrazine-benzo[d]imidazol-5-yl hybrids” (Scientific Reports, 2020)

Legend:
SW-620 = assay: NCI cytotoxicity screen, Colon Cancer panel; assay type: cell-based, human; details: Homo sapiens, single dose 10 µM, negative = lethal, read-out: Percent growth inhibition
Method: (§1) Cytotoxicity was performed at National Cancer Institute (NCI), Bethesda, USA as per their protocols.

KM12 = assay: NCI cytotoxicity screen, Colon Cancer panel; assay type: cell-based, human; details: Homo sapiens, single dose 10 µM, negative = lethal, read-out: Percent growth inhibition
Method: as §1

HCC-2998 = assay: NCI cytotoxicity screen, Colon Cancer panel; assay type: cell-based, human; details: Homo sapiens; HCC-2998; single dose 10 µM; negative = lethal; read-out: Percent growth inhibition
Method: as §1

RXF 393 = assay: NCI cytotoxicity screen, Renal Cancer panel; assay type: cell-based; details: Homo sapiens, single dose 10 µM, negative = lethal, read-out: Percent growth inhibition
Method: as §1

ACHN = assay: NCI cytotoxicity screen, Renal Cancer panel; assay type: cell-based; details: Homo sapiens, single dose 10 µM, negative = lethal, read-out: Percent growth inhibition
Method: as §1

UO-31 = assay: NCI cytotoxicity screen, Renal Cancer panel; assay type: cell-based; details: Homo sapiens, single dose 10 µM, negative = lethal, read-out: Percent growth inhibition
Method: as §1

A498 = assay: NCI cytotoxicity screen, Renal Cancer panel; assay type: cell-based; details: Homo sapiens, single dose 10 µM, negative = lethal, read-out: Percent growth inhibition
Method: as §1

SN12C = assay: NCI cytotoxicity screen, Renal Cancer panel; assay type: cell-based; details: Homo sapiens, single dose 10 µM, negative = lethal, read-out: Percent growth inhibition
Method: as §1

786-0 = assay: NCI cytotoxicity screen, Renal Cancer panel; assay type: cell-based, human; details: Homo sapiens, single dose 10 µM, negative = lethal, read-out: Percent growth inhibition
Method: as §1

TK-10 = assay: NCI cytotoxicity screen, Renal Cancer panel; assay type: cell-based, human; details: Homo sapiens, single dose 10 µM, negative = lethal, read-out: Percent growth inhibition
Method: as §1

LOX IMVI = assay: NCI cytotoxicity screen, Melanoma panel; assay type: cell-based, human; details: Homo sapiens, single dose 10 µM, negative = lethal, read-out: Percent growth inhibition
Method: as §1

M14 = assay: NCI cytotoxicity screen, Melanoma panel; assay type: cell-based, human; details: Homo sapiens, single dose 10 µM, negative = lethal, read-out: Percent growth inhibition
Method: as §1

OVCAR-3 = assay: NCI cytotoxicity screen, Ovarian Cancer panel; assay type: cell-based, human; details: Homo sapiens; OVCAR-3; single dose 10 µM; negative = lethal; read-out: Percent growth inhibition
Method: as §1

MOLT-4 = assay: NCI cytotoxicity screen, Leukemia panel; assay type: cell-based; details: Homo sapiens, MOLT-4, MOLT-4; single dose 10 µM; negative = lethal; read-out: Percent growth inhibition
Method: as §1

SR = assay: NCI cytotoxicity screen, Leukemia panel; assay type: cell-based; details: Homo sapiens, single dose 10 µM, negative = lethal, read-out: Percent growth inhibition
Method: as §1

K-562 = assay: NCI cytotoxicity screen, Leukemia panel; assay type: cell-based; details: Homo sapiens, K562; K-562; single dose 10 µM; negative = lethal; read-out: Percent growth inhibition
Method: as §1

HL-60(TB) = assay: NCI cytotoxicity screen, Leukemia panel; assay type: cell-based; details: Homo sapiens, HL-60, HL-60(TB); single dose 10 µM; negative = lethal; read-out: Percent growth inhibition
Method: as §1

RPMI-8226 = assay: NCI cytotoxicity screen, Leukemia panel; assay type: cell-based; details: Homo sapiens; RPMI-8226; single dose 10 µM; negative = lethal; read-out: Percent growth inhibition
Method: as §1

CCRF-CEM = assay: NCI cytotoxicity screen, Leukemia panel; assay type: cell-based; details: Homo sapiens, single dose 10 µM, negative = lethal, read-out: Percent growth inhibition
Method: as §1

OVCAR-4 = assay: NCI cytotoxicity screen, Ovarian Cancer panel; assay type: cell-based; details: Homo sapiens; OVCAR-4; single dose 10 µM; negative = lethal; read-out: Percent growth inhibition
Method: as §1

IGROV1 = assay: NCI cytotoxicity screen, Ovarian Cancer panel; assay type: cell-based; details: Homo sapiens, IGROV-1, single dose 10 µM, negative = lethal, read-out: Percent growth inhibition
Method: as §1

SK-OV-3 = assay: NCI cytotoxicity screen, Ovarian Cancer panel; assay type: cell-based; details: Homo sapiens, single dose 10 µM, negative = lethal, read-out: Percent growth inhibition
Method: as §1

OVCAR-8 = assay: NCI cytotoxicity screen, Ovarian Cancer panel; assay type: cell-based; details: Homo sapiens, single dose 10 µM, negative = lethal, read-out: Percent growth inhibition
Method: as §1

OVCAR-5 = assay: NCI cytotoxicity screen, Ovarian Cancer panel; assay type: cell-based; details: Homo sapiens, single dose 10 µM, negative = lethal, read-out: Percent growth inhibition
Method: as §1

NCI/ADR-RES = assay: NCI cytotoxicity screen, Ovarian Cancer panel; assay type: cell-based; details: Homo sapiens, single dose 10 µM, negative = lethal, read-out: Percent growth inhibition
Method: as §1

MDA-MB-468 = assay: NCI cytotoxicity screen, Breast Cancer panel; assay type: cell-based; details: Homo sapiens, single dose 10 µM, negative = lethal, read-out: Percent growth inhibition
Method: as §1

BT-549 = assay: NCI cytotoxicity screen, Breast Cancer panel; assay type: cell-based; details: Homo sapiens, single dose 10 µM, negative = lethal, read-out: Percent growth inhibition
Method: as §1

HS 578 T = assay: NCI cytotoxicity screen, Breast Cancer panel; assay type: cell-based; details: Homo sapiens; HS 578T; single dose 10 µM; negative = lethal; read-out: Percent growth inhibition
Method: as §1

MCF7 = assay: NCI cytotoxicity screen, Breast Cancer panel; assay type: cell-based; details: Homo sapiens, single dose 10 µM, negative = lethal, read-out: Percent growth inhibition
Method: as §1

MDA-MB-231/ATCC = assay: NCI cytotoxicity screen, Breast Cancer panel; assay type: cell-based; details: Homo sapiens, MDA-MB-231, read-out: Percent growth inhibition
Method: as §1

T-47D = assay: NCI cytotoxicity screen, Breast Cancer panel; assay type: cell-based; details: Homo sapiens, T47D, T-47D; single dose 10 µM; negative = lethal; read-out: Percent growth inhibition
Method: as §1

HT29 = assay: NCI cytotoxicity screen, Colon Cancer panel; assay type: cell-based; details: Homo sapiens, HT-29; HT29; single dose 10 µM; negative = lethal; read-out: Percent growth inhibition
Method: as §1

HCT-15 = assay: NCI cytotoxicity screen, Colon Cancer panel; assay type: cell-based; details: Homo sapiens, single dose 10 µM, negative = lethal, read-out: Percent growth inhibition
Method: as §1

HCT-116 = assay: NCI cytotoxicity screen, Colon Cancer panel; assay type: cell-based; details: Homo sapiens, single dose 10 µM, negative = lethal, read-out: Percent growth inhibition
Method: as §1

COLO 205 = assay: NCI cytotoxicity screen, Colon Cancer panel; assay type: cell-based; details: Homo sapiens, single dose 10 µM, negative = lethal, read-out: Percent growth inhibition
Method: as §1

HOP-92 = assay: NCI cytotoxicity screen, Non-Small Cell Lung Cancer panel; assay type: cell-based; details: Homo sapiens, single dose 10 µM, negative = lethal, read-out: Percent growth inhibition
Method: as §1

HOP-62 = assay: as above; assay type: cell-based; details: Homo sapiens, single dose 10 µM, negative = lethal, read-out: Percent growth inhibition
Method: as §1

NCI-H460 = assay: as above; assay type: cell-based; details: Homo sapiens, single dose 10 µM, negative = lethal, read-out: Percent growth inhibition
Method: as §1

A549/ATCC = assay: as above; assay type: cell-based; details: Homo sapiens; A549/ATCC; single dose 10 µM; negative = lethal; read-out: Percent growth inhibition
Method: as §1

EXVX = assay: as above; assay type: cell-based; details: Homo sapiens; EXVX; single dose 10 µM; negative = lethal; read-out: Percent growth inhibition
Method: as §1

DU-145 = assay: NCI cytotoxicity screen, Prostate Cancer panel; assay type: cell-based, human; details: Homo sapiens, single dose 10 µM, negative = lethal, read-out: Percent growth inhibition
Method: as §1

PC-3 = assay: NCI cytotoxicity screen, Prostate Cancer panel; assay type: cell-based, human; details: Homo sapiens, single dose 10 µM, negative = lethal, read-out: Percent growth inhibition
Method: as §1

NCI-522 = assay: NCI cytotoxicity screen, Non-Small Cell Lung Cancer panel; assay type: cell-based, human; details: Homo sapiens; NCI-522; single dose 10 µM; negative = lethal; read-out: Percent growth inhibition
Method: as §1

NCI-H322M = assay: as above; assay type: cell-based, human; details: Homo sapiens, single dose 10 µM, negative = lethal, read-out: Percent growth inhibition
Method: as §1

NCI-H226 = assay: as above; assay type: cell-based, human; details: Homo sapiens, single dose 10 µM, negative = lethal, read-out: Percent growth inhibition
Method: as §1

NCI-H23 = assay: as above; assay type: cell-based, human; details: Homo sapiens, single dose 10 µM, negative = lethal, read-out: Percent growth inhibition
Method: as §1

SF-295 = assay: NCI cytotoxicity screen, CNS Cancer panel; assay type: cell-based; details: Homo sapiens, single dose 10 µM, negative = lethal, read-out: Percent growth inhibition
Method: as §1

SNB-19 = assay: NCI cytotoxicity screen, CNS Cancer panel; assay type: cell-based; details: Homo sapiens; SNB-19; single dose 10 µM; negative = lethal; read-out: Percent growth inhibition
Method: as §1

SNB-75 = assay: NCI cytotoxicity screen, CNS Cancer panel; assay type: cell-based; details: Homo sapiens, single dose 10 µM, negative = lethal, read-out: Percent growth inhibition
Method: as §1

U251 = assay: NCI cytotoxicity screen, CNS Cancer panel; assay type: cell-based; details: Homo sapiens, U-251; U251; single dose 10 µM; negative = lethal; read-out: Percent growth inhibition
Method: as §1

SF-539 = assay: NCI cytotoxicity screen, CNS Cancer panel; assay type: cell-based; details: Homo sapiens, single dose 10 µM, negative = lethal, read-out: Percent growth inhibition
Method: as §1

SF-268 = assay: NCI cytotoxicity screen, CNS Cancer panel; assay type: cell-based; details: Homo sapiens, single dose 10 µM, negative = lethal, read-out: Percent growth inhibition
Method: as §1

MALME-3M = assay: NCI cytotoxicity screen, Melanoma panel; assay type: cell-based; details: Homo sapiens; MALME-3M; single dose 10 µM; negative = lethal; read-out: Percent growth inhibition
Method: as §1

SK-MEL-2 = assay: NCI cytotoxicity screen, Melanoma panel; assay type: cell-based; details: Homo sapiens, single dose 10 µM, negative = lethal, read-out: Percent growth inhibition
Method: as §1

MDA-MB-435 = assay: NCI cytotoxicity screen, Melanoma panel; assay type: cell-based; details: Homo sapiens, MDA-MB-435, read-out: Percent growth inhibition
Method: as §1

SK-MEL-28 = assay: NCI cytotoxicity screen, Melanoma panel; assay type: cell-based; details: Homo sapiens, single dose 10 µM, negative = lethal, read-out: Percent growth inhibition
Method: as §1

SK-MEL-5 = assay: NCI cytotoxicity screen, Melanoma panel; assay type: cell-based; details: Homo sapiens, single dose 10 µM, negative = lethal, read-out: Percent growth inhibition
Method: as §1

UACC-257 = assay: NCI cytotoxicity screen, Melanoma panel; assay type: cell-based; details: Homo sapiens, single dose 10 µM, negative = lethal, read-out: Percent growth inhibition
Method: as §1

**Q.** Which results are given for Brc1cn2ccnc2c(-c2ccc3c(c2)ncn3C2CCCCC2)n1 [Compound 8, 6-bromo-8-(1-cyclohexyl-1H-benzo[d]imidazol-5-yl)imidazo[1,2-a]pyrazine]?
**A.** inhibition at 10 µM (SW-620): < 1%; inhibition at 10 µM (KM12): < 1%; inhibition at 10 µM (HCC-2998): 3.13%; inhibition at 10 µM (RXF 393): < 1%; inhibition at 10 µM (ACHN): < 1%; inhibition at 10 µM (UO-31): 40.1%; inhibition at 10 µM (A498): 3.51%; inhibition at 10 µM (SN12C): < 1%; inhibition at 10 µM (786-0): 1.3%; inhibition at 10 µM (TK-10): < 1%; inhibition at 10 µM (LOX IMVI): 9.14%; inhibition at 10 µM (M14): < 1%; inhibition at 10 µM (OVCAR-3): < 1%; inhibition at 10 µM (MOLT-4): 17.4%; inhibition at 10 µM (SR): 20.6%; inhibition at 10 µM (K-562): 17.4%; inhibition at 10 µM (HL-60(TB)): 10.5%; inhibition at 10 µM (RPMI-8226): < 1%; inhibition at 10 µM (CCRF-CEM): < 1%; inhibition at 10 µM (OVCAR-4): 9.25%; inhibition at 10 µM (IGROV1): 8.45%; inhibition at 10 µM (SK-OV-3): 6.59%; inhibition at 10 µM (OVCAR-8): 3.55%; inhibition at 10 µM (OVCAR-5): < 1%; inhibition at 10 µM (NCI/ADR-RES): 5.47%; inhibition at 10 µM (MDA-MB-468): 6.27%; inhibition at 10 µM (BT-549): 6.38%; inhibition at 10 µM (HS 578 T): 2.68%; inhibition at 10 µM (MCF7): 37.6%; inhibition at 10 µM (MDA-MB-231/ATCC): 3.12%; inhibition at 10 µM (T-47D): 25.3%; inhibition at 10 µM (HT29): 4.48%; inhibition at 10 µM (HCT-15): 4.25%; inhibition at 10 µM (HCT-116): 6.06%; inhibition at 10 µM (COLO 205): < 1%; inhibition at 10 µM (HOP-92): 21.9%; inhibition at 10 µM (HOP-62): 13%; inhibition at 10 µM (NCI-H460): 3.26%; inhibition at 10 µM (A549/ATCC): 4.8%; inhibition at 10 µM (EXVX): 10.3%; inhibition at 10 µM (DU-145): < 1%; inhibition at 10 µM (PC-3): 10.3%; inhibition at 10 µM (NCI-522): 15.2%; inhibition at 10 µM (NCI-H322M): 10.9%; inhibition at 10 µM (NCI-H226): 3.73%; inhibition at 10 µM (NCI-H23): 8.76%; inhibition at 10 µM (SF-295): 7.58%; inhibition at 10 µM (SNB-19): 10.5%; inhibition at 10 µM (SNB-75): 16.4%; inhibition at 10 µM (U251): < 1%; inhibition at 10 µM (SF-539): 6.65%; inhibition at 10 µM (SF-268): 5.8%; inhibition at 10 µM (MALME-3M): < 1%; inhibition at 10 µM (SK-MEL-2): 0.53%; inhibition at 10 µM (MDA-MB-435): < 1%; inhibition at 10 µM (SK-MEL-28): < 1%; inhibition at 10 µM (SK-MEL-5): 8.35%; inhibition at 10 µM (UACC-257): < 1%
